{"source": "patent US7705047B2", "about": "“Amidoacetonitrile derivatives” (Novartis AG, priority 2003, dated 2010)", "system": "Trichostrongylus colubriformis and Haemonchus contortus", "assay": "In-vivo test on Trichostrongylus colubriformis and Haemonchus contortus on Mongolian gerbils using peroral application", "design": "species or system Mongolian gerbils (Meriones unguiculatus)", "conditions": "Mongolian gerbils infected with T. colubriformis and H. contortus, dose of 16 mg/kg, worm count 3 days after treatment", "excerpt": "1. In-vivo Test on Trichostrongylus colubriformis and Haemonchus contortus on Mongolian Gerbils (Meriones unguiculatus) using Peroral Application Six to eight week old Mongolian gerbils are infected through a stomach tube with ca. 2000 third instar larvae each of T. colubriformis and H. contortus. […] On day 9 (3 days after treatment), when most of the H. contortus that are still present are late 4th instar larvae and most of the T. colubriformis are immature adults, the gerbils are killed in order to count the worms. The efficacy is calculated as the % reduction of the number of worms in each gerbil, compared with the geometric average of number of worms from 6 infected and untreated gerbils."}
{"smiles": "CC(C#N)(COc1cc(C#N)ccc1Oc1ccc(Cl)cc1Cl)NC(=O)c1ccc(OC(F)(F)F)cc1", "note": "(stereo not shown) [Compound 1.47, N-[1-cyano-1-methyl-2-(5-cyano-2-{2,4-dichlorophenoxy}-phenoxy)-ethyl]-4-trifluoromethoxybenzamide]", "values": [{"measurement": "elimination of the nematode infestation", "result": "complete elimination"}]}
